How the values were obtained:
[1] = system: differentiated HBE cultures; test: ASL volume by refracted light microscopy of the meniscus, bumetanide treatment; assay type: cell-based, human; conditions: 100 μM bumetanide for three days prior to measurement; mean ±SEM; control filters 10.6±1.0 μL; p<0.001
Procedure: (§1) HBE cells were cultured from excess pathological tissue following lung transplantation and organ donation under protocols approved by the Universities of Pittsburgh and North Carolina Investigational Review Boards. Cells were studied following 3-6 weeks of culture and considered differentiated when a mucociliary phenotype was apparent on phase contrast microscopy. HBE cultures grown in a twenty four well plate on 0.33 cm^2 filter inserts (See, e.g., FIG. 1B) were visualized with a standard cell culture microscope (Olympus CK40) with a 5× plain light objective (Zeiss) and imaged using a Scion CFW 1610M camera with μManager (30). […] In order to standardize the quantification of the meniscus image, a custom script using the open-source ImageJ software was developed. […] The length of the meniscus can be determined as the length from where the grey value is greater than min to the end of the array and the area under the curve (AUC) is measured using the numerically integrated rectangular rule. […] Therefore, the correlation between the derived parameters of the intensity profile and the ASL volume were determined, rather than mathematically calculating the volume based on the AUC of the intensity profile. […] Thus, the ASL volume can be measured from the image of the meniscus by integrating the […] value with the experimentally derived calibration curve shown in FIG. 4B. […]

[2] = system: differentiated CF HBE cells; test: ASL volume by refracted light microscopy after apical fluid bolus, isotonic versus hypertonic; assay type: cell-based, human; conditions: 5 μL PBS with 300 mM mannitol applied apically; ASL volume measured at 0, 4, 8, 24, 48 and 72 hours; FIG. 7
Procedure: as §1

SMILES	ASL volume [1] [µL]	ASL volume expansion compared to isotonic fluid [2]
CCCCNc1cc(C(=O)O)cc(S(N)(=O)=O)c1Oc1ccccc1 [bumetanide]	1.1 ± 0.1	–
OC[C@@H](O)[C@@H](O)[C@H](O)[C@H](O)CO [mannitol]	–	more pronounced and prolonged ASL volume expansion

Source: US9784725B2, “Light refraction imaging to measure liquid volume” (University of Pittsburgh—Of the Commonwealth System of …, priority 2016, dated 2017)
